# Assay results from PubChem BioAssay (NCI).
#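 Grown in 96-well plates, cells were treated for 48 hours with each compound at five concentrations. Insufficient inhibition: endpoint recorded as highest concentration tested. Abbreviation: GI50, concentration required for 50% inhibition of growth. TGI is the concentration that stops growth completely.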
# Key:
# Experiment in all cases: DTP human tumour cell line panel, 48 h
# UACC-257 melanoma = test system: UACC-257 melanoma
# BT-549 breast = test system: BT-549 breast
# NCI-H23 lung = test system: NCI-H23 lung
# HCC-2998 colon = test system: HCC-2998 colon
# PC-3 prostate = test system: PC-3 prostate
# OVCAR-5 ovarian = test system: OVCAR-5 ovarian
# MDA-MB-231 breast = test system: MDA-MB-231 breast
# SNB-75 CNS = test system: SNB-75 CNS
# T-47D breast = test system: T-47D breast
# SF-295 CNS = test system: SF-295 CNS
# HL-60(TB) leukemia = test system: HL-60(TB) leukemia
# 786-0 renal = test system: 786-0 renal
# DU-145 prostate = test system: DU-145 prostate
# COLO 205 colon = test system: COLO 205 colon
# SN12C renal = test system: SN12C renal
# LOX IMVI melanoma = test system: LOX IMVI melanoma
# NCI-H226 lung = test system: NCI-H226 lung
# UO-31 renal = test system: UO-31 renal
# HS 578T breast = test system: HS 578T breast
# A498 renal = test system: A498 renal
# SK-OV-3 ovarian = test system: SK-OV-3 ovarian
# RXF 393 renal = test system: RXF 393 renal
# HOP-62 NSCLC = test system: HOP-62 NSCLC
# SNB-19 CNS = test system: SNB-19 CNS
# SK-MEL-2 melanoma = test system: SK-MEL-2 melanoma
# CAKI-1 renal = test system: CAKI-1 renal
# UACC-62 melanoma = test system: UACC-62 melanoma
# ACHN renal = test system: ACHN renal
# A549 NSCLC = test system: A549 NSCLC
# MOLT-4 leukemia = test system: MOLT-4 leukemia
# SF-539 CNS = test system: SF-539 CNS
# CCRF-CEM leukemia = test system: CCRF-CEM leukemia
# SR leukemia = test system: SR leukemia
# HT29 colon = test system: HT29 colon
# KM12 colon = test system: KM12 colon
# SK-MEL-28 melanoma = test system: SK-MEL-28 melanoma
# IGROV1 ovarian = test system: IGROV1 ovarian
# NCI/ADR-RES ovarian = test system: NCI/ADR-RES ovarian
# SW-620 colon = test system: SW-620 colon
# MCF7 breast = test system: MCF7 breast
# NCI-H460 lung = test system: NCI-H460 lung
# HOP-92 NSCLC = test system: HOP-92 NSCLC
# M14 melanoma = test system: M14 melanoma
# NCI-H522 lung = test system: NCI-H522 lung
# OVCAR-3 ovarian = test system: OVCAR-3 ovarian
# SF-268 CNS = test system: SF-268 CNS
# OVCAR-4 ovarian = test system: OVCAR-4 ovarian
# EKVX NSCLC = test system: EKVX NSCLC
# HCT-15 colon = test system: HCT-15 colon
# SK-MEL-5 melanoma = test system: SK-MEL-5 melanoma
# MALME-3M melanoma = test system: MALME-3M melanoma
# TK-10 renal = test system: TK-10 renal
# HCT-116 colon = test system: HCT-116 colon
# MDA-MB-435 = test system: MDA-MB-435
# OVCAR-8 ovarian = test system: OVCAR-8 ovarian
structure (smiles),measurement,setting,value
CCCCCCCCCCCCCCCCSC(=NCC)NCC,GI50,UACC-257 melanoma,1870 nM
same,TGI,UACC-257 melanoma,3750 nM
same,GI50,BT-549 breast,6160 nM
same,TGI,BT-549 breast,46900 nM
same,GI50,NCI-H23 lung,2050 nM
same,TGI,NCI-H23 lung,4990 nM
same,GI50,HCC-2998 colon,1850 nM
same,TGI,HCC-2998 colon,3280 nM
same,GI50,PC-3 prostate,1370 nM
same,TGI,PC-3 prostate,2740 nM
same,GI50,OVCAR-5 ovarian,3080 nM
same,TGI,OVCAR-5 ovarian,12500 nM
same,GI50,MDA-MB-231 breast,1310 nM
same,TGI,MDA-MB-231 breast,2690 nM
same,GI50,SNB-75 CNS,2010 nM
same,TGI,SNB-75 CNS,12900 nM
same,GI50,T-47D breast,1480 nM
same,TGI,T-47D breast,3130 nM
same,GI50,SF-295 CNS,1470 nM
same,TGI,SF-295 CNS,2880 nM
same,GI50,HL-60(TB) leukemia,1450 nM
same,TGI,HL-60(TB) leukemia,3120 nM
same,GI50,786-0 renal,3490 nM
same,TGI,786-0 renal,20800 nM
same,GI50,DU-145 prostate,1620 nM
same,TGI,DU-145 prostate,2980 nM
same,GI50,COLO 205 colon,1810 nM
same,TGI,COLO 205 colon,3470 nM
same,GI50,SN12C renal,1560 nM
same,TGI,SN12C renal,2980 nM
same,GI50,LOX IMVI melanoma,1630 nM
same,TGI,LOX IMVI melanoma,3000 nM
same,GI50,NCI-H226 lung,2980 nM
same,TGI,NCI-H226 lung,14600 nM
same,GI50,UO-31 renal,1620 nM
same,TGI,UO-31 renal,4090 nM
same,GI50,HS 578T breast,2800 nM
same,TGI,HS 578T breast,8840 nM
same,GI50,A498 renal,6660 nM
same,TGI,A498 renal,34300 nM
same,GI50,SK-OV-3 ovarian,3360 nM
same,TGI,SK-OV-3 ovarian,11600 nM
same,GI50,RXF 393 renal,1630 nM
same,TGI,RXF 393 renal,3470 nM
same,GI50,HOP-62 NSCLC,1770 nM
same,TGI,HOP-62 NSCLC,3180 nM
same,GI50,SNB-19 CNS,3120 nM
same,TGI,SNB-19 CNS,15800 nM
same,GI50,SK-MEL-2 melanoma,4050 nM
same,TGI,SK-MEL-2 melanoma,28400 nM
same,GI50,CAKI-1 renal,1390 nM
same,TGI,CAKI-1 renal,2780 nM
same,GI50,UACC-62 melanoma,1670 nM
same,TGI,UACC-62 melanoma,3100 nM
OCCCc1n(Cc2ccc3ccccc3c2)c2ccccc2[n+]1Cc1ccc2ccccc2c1,GI50,ACHN renal,12500 nM
same,TGI,ACHN renal,28000 nM
same,GI50,UACC-257 melanoma,1180 nM
same,TGI,UACC-257 melanoma,3250 nM
same,GI50,A549 NSCLC,6970 nM
same,TGI,A549 NSCLC,31400 nM
same,GI50,NCI-H23 lung,1650 nM
same,TGI,NCI-H23 lung,8170 nM
same,GI50,MOLT-4 leukemia,1880 nM
same,TGI,MOLT-4 leukemia,5240 nM
same,GI50,SF-539 CNS,2010 nM
same,TGI,SF-539 CNS,6510 nM
same,GI50,CCRF-CEM leukemia,1990 nM
same,TGI,CCRF-CEM leukemia,5650 nM
same,GI50,SR leukemia,1160 nM
same,TGI,SR leukemia,3780 nM
same,GI50,HCC-2998 colon,1650 nM
same,TGI,HCC-2998 colon,3250 nM
same,GI50,PC-3 prostate,1740 nM
same,TGI,PC-3 prostate,11100 nM
same,GI50,OVCAR-5 ovarian,1980 nM
same,TGI,OVCAR-5 ovarian,7170 nM
same,GI50,HT29 colon,1020 nM
same,TGI,HT29 colon,4170 nM
same,GI50,MDA-MB-231 breast,1320 nM
same,TGI,MDA-MB-231 breast,2780 nM
same,GI50,SNB-75 CNS,1590 nM
same,TGI,SNB-75 CNS,4970 nM
same,GI50,KM12 colon,1400 nM
same,TGI,KM12 colon,3080 nM
same,GI50,SK-MEL-28 melanoma,1220 nM
same,TGI,SK-MEL-28 melanoma,2880 nM
same,GI50,T-47D breast,615 nM
same,TGI,T-47D breast,6820 nM
same,GI50,IGROV1 ovarian,800 nM
same,TGI,IGROV1 ovarian,2480 nM
same,GI50,SF-295 CNS,2640 nM
same,TGI,SF-295 CNS,11300 nM
same,GI50,NCI/ADR-RES ovarian,27000 nM
same,TGI,NCI/ADR-RES ovarian,> 100000 nM
same,GI50,HL-60(TB) leukemia,507 nM
same,TGI,HL-60(TB) leukemia,2360 nM
same,GI50,SW-620 colon,1460 nM
same,TGI,SW-620 colon,3220 nM
same,GI50,786-0 renal,2090 nM
same,TGI,786-0 renal,4740 nM
same,GI50,DU-145 prostate,3520 nM
same,TGI,DU-145 prostate,14200 nM
same,GI50,MCF7 breast,1700 nM
same,TGI,MCF7 breast,3670 nM
same,GI50,COLO 205 colon,838 nM
same,TGI,COLO 205 colon,2530 nM
same,GI50,SN12C renal,1850 nM
same,TGI,SN12C renal,10200 nM
same,GI50,NCI-H460 lung,2430 nM
same,TGI,NCI-H460 lung,9570 nM
same,GI50,HOP-92 NSCLC,567 nM
same,TGI,HOP-92 NSCLC,3100 nM
same,GI50,LOX IMVI melanoma,1340 nM
same,TGI,LOX IMVI melanoma,2680 nM
same,GI50,NCI-H226 lung,2230 nM
same,TGI,NCI-H226 lung,10500 nM
same,GI50,M14 melanoma,1330 nM
same,TGI,M14 melanoma,3560 nM
same,GI50,NCI-H522 lung,1050 nM
same,TGI,NCI-H522 lung,3950 nM
same,GI50,OVCAR-3 ovarian,1070 nM
same,TGI,OVCAR-3 ovarian,2810 nM
same,GI50,UO-31 renal,10400 nM
same,TGI,UO-31 renal,25300 nM
same,GI50,SF-268 CNS,1810 nM
same,TGI,SF-268 CNS,4560 nM
same,GI50,OVCAR-4 ovarian,670 nM
same,TGI,OVCAR-4 ovarian,6730 nM
same,GI50,EKVX NSCLC,3680 nM
same,TGI,EKVX NSCLC,19400 nM
same,GI50,HS 578T breast,2150 nM
same,TGI,HS 578T breast,7960 nM
same,GI50,A498 renal,1380 nM
same,TGI,A498 renal,5180 nM
same,GI50,HCT-15 colon,11200 nM
same,TGI,HCT-15 colon,24800 nM
same,GI50,SK-MEL-5 melanoma,1110 nM
same,TGI,SK-MEL-5 melanoma,2320 nM
same,GI50,MALME-3M melanoma,1280 nM
same,TGI,MALME-3M melanoma,2820 nM
same,GI50,SK-OV-3 ovarian,2870 nM
same,TGI,SK-OV-3 ovarian,13600 nM
same,GI50,RXF 393 renal,1500 nM
same,TGI,RXF 393 renal,3830 nM
same,GI50,TK-10 renal,1950 nM
same,TGI,TK-10 renal,4740 nM
same,GI50,HOP-62 NSCLC,2320 nM
same,TGI,HOP-62 NSCLC,11600 nM
same,GI50,SNB-19 CNS,1270 nM
same,TGI,SNB-19 CNS,2850 nM
same,GI50,HCT-116 colon,1050 nM
same,TGI,HCT-116 colon,2590 nM
same,GI50,MDA-MB-435,1220 nM
same,TGI,MDA-MB-435,2710 nM
same,GI50,OVCAR-8 ovarian,2670 nM
same,TGI,OVCAR-8 ovarian,14000 nM
same,GI50,UACC-62 melanoma,666 nM
same,TGI,UACC-62 melanoma,2090 nM
